Source: PubChem BioAssay (NCI)
Where “and” joins values, the source holds several entries; their conditions need not be identical. Identical values can stand only once.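 Interpolation was linear, between the two tested concentrations surrounding the appropriate level; five concentrations were tested over 48 hours in 96-well plates. Abbreviation: GI50, concentration required for 50% inhibition of growth. TGI is the concentration that stops growth completely.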

What was measured:
Test in all cases: NCI anticancer screen, dose series, 48 h
[1] = system: ACHN renal
[2] = system: SK-MEL-5 melanoma
[3] = system: SR leukemia
[4] = system: HCT-15 colon
[5] = system: HCT-116 colon
[6] = system: UO-31 renal
[7] = system: COLO 205 colon
[8] = system: SW-620 colon
[9] = system: A498 renal
[10] = system: PC-3 prostate

| SMILES | TGI [1] | TGI [2] | TGI [3] [µM] | TGI [4] [µM] | TGI [5] | TGI [6] | TGI [7] | TGI [8] [µM] | TGI [9] | GI50 [1] [µM] | GI50 [10] [µM] | TGI [10] [µM] | GI50 [2] | GI50 [3] [µM] | GI50 [4] [µM] | GI50 [6] [µM] | GI50 [7] | GI50 [8] [µM] | GI50 [9] [µM] | GI50 [5] |
| --- | --- | --- | --- | --- | --- | --- | --- | --- | --- | --- | --- | --- | --- | --- | --- | --- | --- | --- | --- | --- |
| CCCCC(C)/C=C/C(=O)C1=C(O)/C(=C/C(=O)O)OC1=O (stereo not drawn) | > 100 µM | > 100 µM | > 100 | > 100 | > 100 µM | > 100 µM | > 100 µM | > 100 | > 100 µM |  |  |  |  |  |  |  |  |  |  |  |
| CCN(CC)c1c(-c2ccccc2)n[nH]c1C(=O)OC | 74.3 µM | 27.6 µM | 80.1 | 40.9 |  | > 100 µM | 64 µM | > 100 | 31.7 µM | 28.8 | 31.2 | > 100 | 14.5 µM | 17.2 | 19 | 46.5 | 17.7 µM | 26.6 | 0.519 |  |
| Nc1ccc(-c2cc(C(=O)Nc3nccs3)[nH]c(=S)n2)cc1 | > 100 µM | > 100 µM |  | > 100 | > 100 µM | > 100 µM | > 100 µM | > 100 | > 100 µM |  |  |  |  |  |  |  |  |  |  |  |
| O=C1C(=C2CCCC2)CCC1CN1CCCCC1 (stereo not drawn) |  | 34.1 µM | 47.1 | 31.2 | 38.1 µM | > 100 µM | 73.5 µM | 32.1 | 35.7 µM |  |  |  |  |  |  |  |  |  |  |  |
| CCC/C=C\C=C\C1(NS(=O)(=O)c2ccc(C)cc2)CCC(C(C)(C)C)CC1 (stereo not drawn) | 53.7 µM | 33.3 µM | 14.8 | 43.8 | 38.3 µM | 59 µM | 28.1 µM | 35.7 | 46.4 µM |  |  |  |  |  |  |  |  |  |  |  |
| C[C@H]1C/C=C/[C@H]2[C@@H]3O[C@]3(C)[C@@H](C)[C@H]3[C@H](Cc4ccccc4)NC(=O)[C@]32OC(=O)O/C=C/[C@@](C)(O)C1=O |  |  |  | 56.6 | 6.75 µM and 16.3 µM and 33.6 µM | 0.0499 µM | 49.2 µM and 98.6 µM and 70.8 µM |  | 0.0665 µM and 0.527 µM |  |  |  | 0.0539 µM and 0.0351 µM |  |  |  | 0.0194 µM and 0.0125 µM and 0.025 µM |  | 0.0126 | 0.0578 µM and 0.0207 µM and 0.0301 µM |
| Cc1ccc(S(=O)(=O)NC(=O)NCCc2ccccc2)cc1 | > 100 µM | > 100 µM |  |  | > 100 µM | > 100 µM | > 100 µM | > 100 | > 100 µM |  |  |  |  |  |  |  |  |  |  |  |
| CCOC(=O)C(=O)Nc1cc(Cl)c(Cl)cc1Cl | > 100 µM | > 100 µM |  | > 100 | > 100 µM | > 100 µM | > 100 µM | > 100 |  |  |  |  |  |  |  |  |  |  |  |  |
| O=[P+](O)c1ccccn1 | > 100 µM | > 100 µM |  | > 100 | > 100 µM | > 100 µM | > 100 µM | > 100 | > 100 µM |  |  |  |  |  |  |  |  |  |  |  |
| S=c1o[nH]c(-c2ccccc2)c1C=Nc1ccccc1 | > 100 µM | > 100 µM |  | > 100 |  | > 100 µM | > 100 µM | > 100 | > 100 µM |  |  |  |  |  |  |  |  |  |  |  |
| COc1cccc(-c2nn(-c3ccccc3)cc2-c2ccnc(NCCCNC(=O)c3cccc(C(F)(F)F)c3)c2)c1 | 18.3 µM | 3.34 µM | 8.02 | 15.6 | 16.1 µM | 16.6 µM | 12.4 µM | 31.5 |  | 4.08 | 3.18 | 24 | 1.54 µM | 2.1 | 3.4 | 2.69 | 3.33 µM | 4.35 |  | 3.81 µM |
| Cc1ccccc1NC(=O)/C=N/O | > 100 µM | > 100 µM | > 100 | > 100 | > 100 µM | > 100 µM | > 100 µM | > 100 | > 100 µM |  |  |  |  |  |  |  |  |  |  |  |
| Nc1nonc1-c1nc2ccccc2n1Cc1ccc(F)cc1 | > 100 µM |  | > 100 | > 100 | > 100 µM | > 100 µM | > 100 µM | > 100 | > 100 µM | 16 |  |  |  | 4.89 | 3.6 | 5.72 | 5.02 µM | 3.54 | 2.2 | 4.81 µM |
| CN(C)CCC(/C=C/c1ccccc1)=N\Nc1ccc(Cl)c(Cl)c1 | 4.49 µM | 8.96 µM | 5.34 | 12.9 | 11.2 µM | 3.41 µM | 7.23 µM | 13.3 | 13.8 µM |  |  |  |  |  |  |  |  |  |  |  |
| COC(=O)CCC(=O)N1C/C(=C\c2ccccc2)C(=O)/C(=C/c2ccccc2)C1 | 3.8 µM | 5.44 µM | 12.2 | 2.43 | 1.42 µM | 3.97 µM | 3.67 µM | 0.389 | 4.45 µM |  |  |  |  |  |  |  |  |  |  |  |
| Cc1coc2c1C(=O)C(=O)c1ccccc1-2 |  | 1.92 µM | 4.78 | 3.42 | 0.879 µM | 10.4 µM |  | 2.92 | 3.25 µM |  |  |  |  |  |  |  |  |  |  |  |
| CCCCCCCCOCC(O)CO (stereo not drawn) | > 100 µM | > 100 µM | > 100 | > 100 | > 100 µM | > 100 µM | > 100 µM | > 100 | > 100 µM |  |  |  |  |  |  |  |  |  |  |  |
| CC(C)(C)OP(=O)(OC(C)(C)C)C(O)c1ccc(/C=C(\C#N)C(N)=O)cc1 (stereo not drawn) | > 100 µM |  |  | > 100 | > 100 µM | > 100 µM | > 100 µM | > 100 | > 100 µM |  |  |  |  |  |  |  |  |  |  |  |
| CCCCCCCCCC[C@@H](O)[C@@H]1CC[C@@H]([C@@H]2CC[C@@H]([C@@H](O)CCCCCCCCCC[C@H](O)CC3=CC(C)OC3=O)O2)O1 (stereo partly drawn) | 5.75 µM and 20.7 µM | 3.11 µM and 2.6 µM | 6.32 | > 100 | 28.1 µM | 5.24 µM and > 20 µM | > 27.5 µM | > 100 | 8.64 µM and 34.9 µM | 2.26 |  |  |  |  | 4.23 | 2.42 |  | 4.82 | 8.48 |  |
| C/C(=N\NC(N)=S)c1ccc(C)c(C)c1 | > 100 µM | > 100 µM | > 100 | > 100 | > 100 µM | > 100 µM | > 100 µM | > 100 | > 100 µM |  |  |  |  |  |  |  |  |  |  |  |
| O=S(=O)(NCCNc1nccc(-c2c(-c3ccc(F)c(O)c3)nc3sccn23)n1)c1ccc(Cl)cc1 | > 50 µM |  | > 50 | > 50 | > 50 µM | > 50 µM |  | > 50 | 11.7 µM | 1.4 | 1.14 | > 50 |  | 1.87 | 1.67 | 0.94 |  | > 50 | 1.63 | 1.54 µM |
